Columns and labels:
[1] = Human liver microsome clearance / stability; format: in vitro ADME; settings: for HLM (human liver microsome stability): human liver microsomes, Table 5; for HLM clearance, in words: as compared to compounds 1 and 2
From the text: Human liver microsome clearance (mL/min/kg) may be measured according to the method described by Ackley et al, “Metabolic Stability Assessed by Liver Microsomes and Hepatocytes”, in “Optimization in Drug Discovery” in the “Methods in Pharmacology and Toxicology” series (ISSN 1557-2153), pp. 151-162 (Yan, Ed., Print ISBN 978-1-58829-332-9, Springer (2004), as well as by using commercially available assay kits by Cerep, Cyprotex, Bd Bioscience and others.
Human liver microsome HLM stability may be measured as using the procedure of Ackley et al. as described above.

human TRPA1 [2] = molecular target: T1, human TRPA1 (Homo sapiens, UniProt O75762); experiment: Human Ca2+ MAX IC50 calcium assay; format: cell-based; settings: for IC50: Table 5, read-out: H Ca2+ MAX (human CA2+ MAX IC50); for affinity on human TRPA1, in words: as compared to compounds 1 and 2
T1 construct: expressed in transfected cells; host or cells: CHO cells
From the text: Human Ca2+ MAX IC50 may be measured using one of the commercially available calcium assay kits provided by Molecular Devices, Abcam, Bio-Rad, Biovision, Enzo Lifesciences, Abnova, Sigma-Aldrich, or others.

human TRPA1 [3] = molecular target: T1, human TRPA1; experiment: FLIPR Tetra calcium influx assay, CHO cells expressing TRPA1, cinnamaldehyde agonist (hTRPA1 CHO Ca2+ AUC EVO); format: cell-based; settings: CHO cells expressing human TRPA1; 75 uM cinnamaldehyde; Hill coefficient fixed to 1.5; read-out: hTRPA1 IC50 (hTRPA1 CHO Ca2+ AUC EVO (IC50))
Protocol: The IC50 ([…]) of compounds on the human and rat TRPA1 channels were determined using a FLIPR Tetra instrument. CHO cells expressing TRPA1 were plated into 384-well plates, incubated overnight at 37° C., and loaded with BD calcium indicator dye for 1 hr at 37° C. followed by 15 minutes at room temperature. The assay buffer was Hank's Balanced Salt Solution (HBSS) containing 20 mM HEPES (pH readjusted to 7.4) along with 0.02% BSA.
Following dye load and plate cool down, compounds were added to the cells using FLIPR Tetra. Plates were then incubated with compounds for 20 minutes at room temperature prior to adding agonist. Following this incubation, about an EC80 concentration of cinnamaldehyde (75 uM for human TRPA1 and 45 uM for rat TRPA1) was added to active the channels and block of cinnamaldehyde induced calcium influx was measured.
The IC50 results were fit with a standard Hill function, keeping the Hill coefficient (n) fixed to 1.5. Fixing the Hill coefficient will generally reduce variability of the IC50 determination. The IC50 results were individually examined to make sure the MIN and MAX points were set correctly prior to validation of the results.

T1 sequence (O75762 whole entry): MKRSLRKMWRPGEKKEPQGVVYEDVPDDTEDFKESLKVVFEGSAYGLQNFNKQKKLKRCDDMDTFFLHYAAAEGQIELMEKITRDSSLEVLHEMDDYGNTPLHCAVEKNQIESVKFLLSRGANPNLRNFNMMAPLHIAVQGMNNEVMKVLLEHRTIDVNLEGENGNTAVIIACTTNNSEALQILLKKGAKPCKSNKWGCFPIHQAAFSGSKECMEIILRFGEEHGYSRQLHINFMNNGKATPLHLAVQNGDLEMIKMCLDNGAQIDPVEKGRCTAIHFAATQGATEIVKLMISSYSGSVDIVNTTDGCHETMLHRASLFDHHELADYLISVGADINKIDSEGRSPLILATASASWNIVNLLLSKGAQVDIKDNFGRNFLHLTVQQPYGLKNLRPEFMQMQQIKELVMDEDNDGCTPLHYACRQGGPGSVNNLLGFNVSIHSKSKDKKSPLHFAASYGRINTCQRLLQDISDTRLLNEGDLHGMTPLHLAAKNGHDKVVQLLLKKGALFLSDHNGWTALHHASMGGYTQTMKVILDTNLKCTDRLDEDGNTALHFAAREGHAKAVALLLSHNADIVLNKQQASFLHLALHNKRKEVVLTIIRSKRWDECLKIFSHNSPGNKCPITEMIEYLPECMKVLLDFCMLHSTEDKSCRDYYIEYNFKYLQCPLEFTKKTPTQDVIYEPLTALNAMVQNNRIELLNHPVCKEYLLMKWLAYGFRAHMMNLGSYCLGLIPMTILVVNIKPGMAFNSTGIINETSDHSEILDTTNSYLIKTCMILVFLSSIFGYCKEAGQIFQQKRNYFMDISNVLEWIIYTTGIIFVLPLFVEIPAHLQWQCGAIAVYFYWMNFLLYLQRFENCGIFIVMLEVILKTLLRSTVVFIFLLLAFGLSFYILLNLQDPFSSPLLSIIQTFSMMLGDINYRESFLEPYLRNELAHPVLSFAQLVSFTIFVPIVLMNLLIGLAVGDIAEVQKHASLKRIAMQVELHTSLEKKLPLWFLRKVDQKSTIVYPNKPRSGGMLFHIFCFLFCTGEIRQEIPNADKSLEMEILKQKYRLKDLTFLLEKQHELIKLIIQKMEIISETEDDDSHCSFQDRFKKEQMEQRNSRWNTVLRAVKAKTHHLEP

| IC50 (human TRPA1 [3]) [nM] | SMILES | also measured |
| --- | --- | --- |
|  | C[C@H]1[C@H](F)C[C@@H](C(=O)NCc2cc(-c3cnc(C(F)(F)F)nc3)ncc2C(F)(F)F)N1S(=O)(=O)c1ccc(F)cn1 (single isomer, unassigned) [Compound 1] | HLM (human liver microsome stability) [1]: 4.1 mL/min/kg; IC50 (human TRPA1 [2]): 8 nM |
|  | C[C@H]1[C@H](F)C[C@@H](C(=O)NCc2cc(-c3cnc(C(F)(F)F)nc3)ncc2C(F)(F)F)N1S(=O)(=O)c1ccc(Cl)cn1 [Compound 2] | HLM (human liver microsome stability) [1]: 6.1 mL/min/kg; IC50 (human TRPA1 [2]): 6 nM |
|  | C[C@H]1[C@H](F)C[C@@H](C(=O)NCc2cc(-c3cnc(C(F)(F)F)nc3)ncc2C(F)(F)F)N1S(=O)(=O)c1cncc(F)c1 [Compound 3] | HLM clearance, in words [1]: relatively high HLM clearance; HLM (human liver microsome stability) [1]: 19 mL/min/kg; IC50 (human TRPA1 [2]): 21 nM |
|  | C[C@H]1[C@H](F)C[C@@H](C(=O)NCc2cc(-c3cnc(C(F)(F)F)nc3)ncc2C(F)(F)F)N1S(=O)(=O)c1ccc(C#N)nc1 [Compound 4] | HLM (human liver microsome stability) [1]: 3.7 mL/min/kg; IC50 (human TRPA1 [2]): 41 nM; affinity on human TRPA1, in words (human TRPA1 [2]): low affinity |
|  | C[C@H]1[C@H](F)C[C@@H](C(=O)NCc2cc(-c3cnc(C(F)(F)F)nc3)ncc2C(F)(F)F)N1S(=O)(=O)c1ccncc1 [Compound 6] | HLM clearance, in words [1]: relatively high HLM clearance; HLM (human liver microsome stability) [1]: 19 mL/min/kg; IC50 (human TRPA1 [2]): 638 nM; affinity on human TRPA1, in words (human TRPA1 [2]): low affinity |
| 2.69 | C[C@H]1[C@H](F)C[C@@H](C(=O)NCc2cc(-c3cnc(C(F)(F)F)nc3)ncc2C(F)(F)F)N1S(=O)(=O)c1ccc(F)cn1 [[1], (2S,4R,5S)-4-fluoro-1-[(5-fluoro-2-pyridyl)sulfonyl]-5-methyl-N-[[5-(trifluoromethyl)-2-[2-(trifluoromethyl)pyrimidin-5-yl]-4-pyridyl]methyl]pyrrolidine-2-carboxamide] |  |
| 32 | C[C@H]1[C@H](F)C[C@@H](C(=O)NCc2cc(-c3cnc(C(F)(F)F)nc3)ncc2C(F)(F)F)N1S(=O)(=O)c1cccnc1 [[2], (2S,4R,5S)-4-fluoro-5-methyl-1-(3-pyridylsulfonyl)-N-[[5-(trifluoromethyl)-2-[2-(trifluoromethyl)pyrimidin-5-yl]-4-pyridyl]methyl]pyrrolidine-2-carboxamide] |  |
| 3.09 | C[C@H]1[C@H](F)C[C@@H](C(=O)NCc2cc(-c3cnc(C(F)(F)F)nc3)ncc2C(F)(F)F)N1S(=O)(=O)c1cncc(Cl)c1 [[3], (2S,4R,5S)-1-[(5-chloro-3-pyridyl)sulfonyl]-4-fluoro-5-methyl-N-[[5-(trifluoromethyl)-2-[2-(trifluoromethyl)pyrimidin-5-yl]-4-pyridyl]methyl]pyrrolidine-2-carboxamide] |  |
| 0.634 | C[C@H]1[C@H](F)C[C@@H](C(=O)NCc2cc(-c3cnc(C(F)(F)F)nc3)ncc2C(F)(F)F)N1S(=O)(=O)c1cc2c(Cl)nccc2o1 [[4], (2S,4R,5S)-1-(4-chlorofuro[3,2-c]pyridin-2-yl)sulfonyl-4-fluoro-5-methyl-N-[[5-(trifluoromethyl)-2-[2-(trifluoromethyl)pyrimidin-5-yl]-4-pyridyl]methyl]pyrrolidine-2-carboxamide] |  |
| 1.91 | C[C@H]1[C@H](F)C[C@@H](C(=O)NCc2cc(-c3cnc(C(F)(F)F)nc3)ncc2C(F)(F)F)N1S(=O)(=O)c1cc2cnccc2o1 [[5], (2S,4R,5S)-4-fluoro-1-furo[3,2-c]pyridin-2-ylsulfonyl-5-methyl-N-[[5-(trifluoromethyl)-2-[2-(trifluoromethyl)pyrimidin-5-yl]-4-pyridyl]methyl]pyrrolidine-2-carboxamide] |  |
| 2.16 | C[C@H]1[C@H](F)C[C@@H](C(=O)NCc2cc(-c3cnc(C(F)(F)F)nc3)ncc2C(F)(F)F)N1S(=O)(=O)c1ccc(Cl)cn1 [[6], (2S,4R,5S)-1-[(5-chloro-2-pyridyl)sulfonyl]-4-fluoro-5-methyl-N-[[5-(trifluoromethyl)-2-[2-(trifluoromethyl)pyrimidin-5-yl]-4-pyridyl]methyl]pyrrolidine-2-carboxamide] |  |
| 633 | C[C@H]1[C@H](F)C[C@@H](C(=O)NCc2cc(-c3cnc(C(F)(F)F)nc3)ncc2C(F)(F)F)N1S(=O)(=O)c1ncccc1F [[7], (2S,4R,5S)-4-fluoro-1-[(3-fluoro-2-pyridyl)sulfonyl]-5-methyl-N-[[5-(trifluoromethyl)-2-[2-(trifluoromethyl)pyrimidin-5-yl]-4-pyridyl]methyl]pyrrolidine-2-carboxamide] |  |
| 73.5 | C[C@H]1[C@H](F)C[C@@H](C(=O)NCc2cc(-c3cnc(C(F)(F)F)nc3)ncc2C(F)(F)F)N1S(=O)(=O)c1ccc(C#N)cn1 [[8], (2S,4R,5S)-1-(5-cyanopyridin-2-ylsulfonyl)-4-fluoro-5-methyl-N-((5-(trifluoromethyl)-2-(2-(trifluoromethyl)pyrimidin-5-yl)pyridin-4-yl)methyl)pyrrolidine-2-carboxamide] |  |
| 16.7 | C[C@H]1[C@H](F)C[C@@H](C(=O)NCc2cc(-c3cnc(C(F)(F)F)nc3)ncc2Cl)N1S(=O)(=O)c1ccc(F)cn1 [[9], (2S,4R,5S)—N-((5-chloro-2-(2-(trifluoromethyl)pyrimidin-5-yl)pyridin-4-yl)methyl)-4-fluoro-1-(5-fluoropyridin-2-ylsulfonyl)-5-methylpyrrolidine-2-carboxamide] |  |
| 66.9 | C[C@H]1[C@H](F)C[C@@H](C(=O)NCc2cc(-c3cnc(C(F)(F)F)nc3)ccc2C#N)N1S(=O)(=O)c1ccc(F)cn1 [[10], (2S,4R,5S)—N-(2-cyano-5-(2-(trifluoromethyl)pyrimidin-5-yl)benzyl)-4-fluoro-1-(5-fluoropyridin-2-ylsulfonyl)-5-methylpyrrolidine-2-carboxamide] |  |
| 6.73 | C[C@H]1[C@H](F)C[C@@H](C(=O)NCc2cc(-c3cnc(C(F)(F)F)nc3)ncc2OC(F)(F)F)N1S(=O)(=O)c1ccc(F)cn1 [[11], (2S,4R,5S)-4-fluoro-1-(5-fluoropyridin-2-ylsulfonyl)-5-methyl-N-((5-(trifluoromethoxy)-2-(2-(trifluoromethyl)pyrimidin-5-yl)pyridin-4-yl)methyl)pyrrolidine-2-carboxamide] |  |
| 103 | C[C@H]1[C@H](F)C[C@@H](C(=O)NCc2cc(-c3cnc(C(F)(F)F)nc3)ncc2F)N1S(=O)(=O)c1ccc(F)cn1 [[12], (2S,4R,5S)-4-fluoro-N-((5-fluoro-2-(2-(trifluoromethyl)pyrimidin-5-yl)pyridin-4-yl)methyl)-1-(5-fluoropyridin-2-ylsulfonyl)-5-methylpyrrolidine-2-carboxamide] |  |
| 89.8 | C[C@H]1[C@H](F)C[C@@H](C(=O)NCc2cc(-c3cnc(C(F)(F)F)nc3)ncc2C#N)N1S(=O)(=O)c1ccc(F)cn1 [[13], (2S,4R,5S)—N-((5-cyano-2-(2-(trifluoromethyl)pyrimidin-5-yl)pyridin-4-yl)methyl)-4-fluoro-1-(5-fluoropyridin-2-ylsulfonyl)-5-methylpyrrolidine-2-carboxamide] |  |
| 75.1 | C[C@H]1[C@H](F)C[C@@H](C(=O)NCc2cc(-c3cnc(C(F)(F)F)nc3)cnc2C(F)F)N1S(=O)(=O)c1ccc(F)cn1 [[14], (2S,4R,5S)—N-((2-(difluoromethyl)-5-(2-(trifluoromethyl)pyrimidin-5-yl)pyridin-3-yl)methyl)-4-fluoro-1-(5-fluoropyridin-2-ylsulfonyl)-5-methylpyrrolidine-2-carboxamide] |  |
| 47.7 | C[C@H]1[C@H](F)C[C@@H](C(=O)NCc2cc(-c3cnc(C(F)(F)F)nc3)cnc2C(F)(F)F)N1S(=O)(=O)c1ccc(F)cn1 [[15], (2S,4R,5S)-4-fluoro-1-(5-fluoropyridin-2-ylsulfonyl)-5-methyl-N-((2-(trifluoromethyl)-5-(2-(trifluoromethyl)pyrimidin-5-yl)pyridin-3-yl)methyl)pyrrolidine-2-carboxamide] |  |

From patent US10695348B2, “Sulfonyl pyridyl TRP inhibitors” (Genentech, Inc., priority 2017, dated 2020)
